“And” between values parts separate entries of the source, which are not always exact repeats. Identical values can stand only once. Like-named read-outs stand apart in the source and are kept apart here.
Tests used:
FimH = details: Tables 1-3; read-out: Kd ITC (converted); cited from earlier work
FimH lectin domain [1] = target: T1, FimH lectin domain (Escherichia coli, UniProt P08191); experiment: biochemical; assay type: binding, E. coli strain J96
FimH lectin domain [2] = target: T1, FimH lectin domain; details: read-out: Kd SPR; solution affinity by SPR; cited from earlier work
FimH lectin domain [3] = target: T1, FimH lectin domain; experiment: SPR direct binding of FimH to receptor immobilized on sensor chip (steady state affinity); parameters: species or system E. coli strain J96; details: Ss: steady state affinity (Kd), direct binding of FimH to 5b coupled to CM5 sensor chip
Experimental: The equilibrium dissociation constant Kd of FimH for the mannose derivatives was determined using a competition assay in solution. In this assay, the mannose derivatives compete with an immobilized Fab fragment from the monoclonal anti-FimH antibody 1C10 or with an immobilized 8-aminooctyl α-D-mannopyranoside (5b) for FimH binding, as described earlier [34]. The global kinetic constants ka, kd and Rmax of the FimH-ligand interaction of binding were fitted using the BiaEval software.

[4] = Figure S19, fit of solution affinity model to inhibition curve
[5] = KD(M), Figure S19, fit of solution affinity model to inhibition curve
[6] = Kd SPR (nM), solution affinity by SPR competition, Tables 1-3

T1 sequence (P08191 22-179 limits assumed): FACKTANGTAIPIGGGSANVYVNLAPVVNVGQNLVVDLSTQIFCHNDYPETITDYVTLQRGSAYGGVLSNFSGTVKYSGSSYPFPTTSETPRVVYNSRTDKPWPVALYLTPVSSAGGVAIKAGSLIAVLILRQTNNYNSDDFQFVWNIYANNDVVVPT

SMILES | Kd (FimH lectin domain [1]; [6]) [M] | other results
CCCCO[C@H]1O[C@H](CO)[C@@H](O)[C@H](O)[C@@H]1O [Compound 4, reference compound] |  | Kd (FimH): 156 nM
CCCCCCCO[C@H]1O[C@H](CO)[C@@H](O)[C@H](O)[C@@H]1O [Compound 5, heptyl α-D-mannopyranoside, reference compound] |  | KA (FimH lectin domain [1]; [4]): 231691100 M⁻¹; Kd (FimH lectin domain [1]; [5]): 4.32e-09 M; Kd (FimH lectin domain [2]): 4.3 ± 0.3 nM; Kd (FimH): 7.3 nM
CCCCCCCCO[C@H]1O[C@H](CO)[C@@H](O)[C@H](O)[C@@H]1O [Compound 5a, octyl α-D-mannopyranoside, reference compound] |  | KA (FimH lectin domain [1]; [4]): 46550590.5 M⁻¹; Kd (FimH lectin domain [1]; [5]): 2.15e-08 M; Kd (FimH lectin domain [2]): 21 ± 0.2 nM
NCCCCCCCCO[C@H]1O[C@H](CO)[C@@H](O)[C@H](O)[C@@H]1O [Compound 5b, 8-aminooctyl α-D-mannopyranoside] | 1.8e-08 ± 4e-10 | Kd (FimH lectin domain [3]): 16.9 nM and 17 nM
OC[C@H]1O[C@H](OC/C=C/c2ccccc2)[C@@H](O)[C@@H](O)[C@@H]1O [Compound 22] | 5.3e-08 ± 7.5e-09 | 
OC[C@H]1O[C@H](OC/C=C/c2ccc(-c3ccccc3)cc2)[C@@H](O)[C@@H](O)[C@@H]1O [Compound 23] | 3e-09 ± 1.1e-09 | 
OC[C@H]1O[C@H](OC/C=C/c2ccccc2-c2ccccc2)[C@@H](O)[C@@H](O)[C@@H]1O [Compound 24] | 4.3e-09 ± 8e-10 | 
OC[C@H]1O[C@H](OC/C=C/c2cccc3ccccc23)[C@@H](O)[C@@H](O)[C@@H]1O [Compound 25] | 5e-09 ± 1.4e-09 | Kd (FimH): 71 nM
OC[C@H]1O[C@H](OCCCc2ccccc2)[C@@H](O)[C@@H](O)[C@@H]1O [Compound 26] | 5.9e-08 ± 8.5e-09 | 
OC[C@H]1O[C@H](OCCCc2ccc(-c3ccccc3)cc2)[C@@H](O)[C@@H](O)[C@@H]1O [Compound 27] | 1e-08 ± 2e-10 | Kd (FimH): 1.5 nM
OC[C@H]1O[C@H](OCCCc2ccccc2-c2ccccc2)[C@@H](O)[C@@H](O)[C@@H]1O [Compound 28] | 1.3e-08 ± 1.7e-09 | 
OC[C@H]1O[C@H](OCCCc2cccc3ccccc23)[C@@H](O)[C@@H](O)[C@@H]1O [Compound 29] | 2.2e-08 ± 3e-09 | 
OC[C@H]1O[C@H](OCCCSCc2ccccc2)[C@@H](O)[C@@H](O)[C@@H]1O [Compound 35] | 1.6e-08 ± 2.4e-09 | 
CCCCSCCCO[C@H]1O[C@H](CO)[C@@H](O)[C@H](O)[C@@H]1O [Compound 36] | 2.2e-08 ± 2.7e-09 | 
CCCSCCCO[C@H]1O[C@H](CO)[C@@H](O)[C@H](O)[C@@H]1O [Compound 37] | 1.4e-08 ± 5e-09 | 
CCSCCCO[C@H]1O[C@H](CO)[C@@H](O)[C@H](O)[C@@H]1O [Compound 38] | 1.4e-08 ± 7.6e-09 | 
CC(C)SCCCO[C@H]1O[C@H](CO)[C@@H](O)[C@H](O)[C@@H]1O [Compound 39] | 1.1e-08 ± 6.1e-09 | 
C#CCO[C@H]1O[C@H](CO)[C@@H](O)[C@H](O)[C@@H]1O [Compound 41] | 4.9e-07 ± 5.5e-08 | 
OC[C@H]1O[C@H](OCC#Cc2ccccc2)[C@@H](O)[C@@H](O)[C@@H]1O [Compound 50] | 1.68e-07 ± 1.5e-08 | 
OC[C@H]1O[C@H](OCC#Cc2ccc(-c3ccccc3)cc2)[C@@H](O)[C@@H](O)[C@@H]1O [Compound 51] | 4.05e-07 ± 2.4e-08 | 
OC[C@H]1O[C@H](OCC#Cc2ccccc2-c2ccccc2)[C@@H](O)[C@@H](O)[C@@H]1O [Compound 52] | 2.25e-06 ± 2.91e-07 | 
OC[C@H]1O[C@H](OCC#Cc2cccc3ccccc23)[C@@H](O)[C@@H](O)[C@@H]1O [Compound 53] | 1.2e-07 ± 1.8e-08 | 
OC[C@H]1O[C@H](OCC#Cc2cccs2)[C@@H](O)[C@@H](O)[C@@H]1O [Compound 54] | 1.33e-07 ± 3.1e-08 | 
OC[C@H]1O[C@H](OCC#Cc2cccnc2)[C@@H](O)[C@@H](O)[C@@H]1O [Compound 55] | 8.3e-08 ± 5.6e-09 | 
COc1ccc(C#CCO[C@H]2O[C@H](CO)[C@@H](O)[C@H](O)[C@@H]2O)cc1 [Compound 56] | 5.3e-08 ± 2.3e-09 | 
O=[N+]([O-])c1ccc(C#CCO[C@H]2O[C@H](CO)[C@@H](O)[C@H](O)[C@@H]2O)cc1 [Compound 57] | 8.16e-07 ± 1.05e-07 | 
OCC#Cc1ccc(O[C@H]2O[C@H](CO)[C@@H](O)[C@H](O)[C@@H]2O)cc1 [Compound 61] | 3.69e-08 ± 3e-09 | Kd (FimH lectin domain [1]; Kd SPR (nM), Table S2): 6.9e-09 ± 1e-09 M
COCC#Cc1ccc(O[C@H]2O[C@H](CO)[C@@H](O)[C@H](O)[C@@H]2O)cc1 [Compound 62] |  | Kd SPR (nM) (FimH lectin domain [1]; Table S2): nf; Kd SPR (nM) (FimH lectin domain [1]; solution affinity by SPR competition, Tables 1-3): nf *; Kd (FimH): 59.5 ± 2.3 nM
